Some results are limits rather than exact numbers.

The first assay has as its system Bmi-1 protein. Put plainly: Sandwich ELISA Assay (Bmi-1 protein level in HT-1080 cells after compound treatment). Type of assay: cell-based. The settings on record: Table 1, Bmi-1 sandwich ELISA, read-out: ELISA EC50 value for Bmi-1 protein. In a few lines: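 Sandwich ELISA quantified Bmi-1 protein against recombinant standard (125–8000 pg/mL), with lysates captured overnight at 4 °C and signal by HRP/TMB at 450 nm (570 nm reference). Lysates came from HT-1080 cells incubated 40–48 h with test compounds in 0.5% DMSO.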
Consider `Cc1nc2c(F)cc(F)cc2n1-c1cc(C#N)cc(Nc2ccc(OC(F)(F)F)cc2)n1` [Cpd 449, 2-(4,6-difluoro-2-methyl-1H-benzimidazol-1-yl)-6-{[4-(trifluoromethoxy)phenyl]amino}pyridine-4-carbonitrile], for which the EC50 lay in the range of 100 to 3000 nM.

As for `Cc1nc2ccccc2n1-c1cc(F)cc(Nc2ccc(C(F)(F)F)cc2[N+](=O)[O-])n1` [Cpd 493, 4-fluoro-6-(2-methyl-1H-benzimidazol-1-yl)-N-[2-nitro-4-(trifluoromethyl)phenyl]pyridin-2-amine], the EC50 lay within 100 to 3000 nM.

As for `Cc1nc2ccccc2n1-c1cc(F)cc(Nc2ccc(C(F)(F)F)cc2)n1` [Cpd 494, 4-fluoro-6-(2-methyl-1H-benzimidazol-1-yl)-N-[4-(trifluoromethyl)phenyl]pyridin-2-amine], the EC50 fell in the range of 10 to 100 nM.

Take `Cc1ccc(Nc2cccc(-n3c(C)nc4ccccc43)n2)cc1` [Cpd 581, 6-(2-methyl-1H-benzimidazol-1-yl)-N-(4-methylphenyl)pyridin-2-amine]: the EC50 lay in the range of 1 to 10 nM.

On to `Cc1nc2ccc(F)cc2n1-c1cccc(Nc2ccc(OC(F)F)cc2)n1` [Cpd 584, N-[4-(difluoromethoxy)phenyl]-6-(6-fluoro-2-methyl-1H-benzimidazol-1-yl)pyridin-2-amine], for which the EC50 was in the range of 10 to 100 nM.

`Cc1nc2ccc(F)cc2n1-c1cccc(Nc2ccc(OC(F)(F)F)cc2)n1` [Cpd 585, 6-(6-fluoro-2-methyl-1H-benzimidazol-1-yl)-N-[4-(trifluoromethoxy)phenyl]pyridin-2-amine]: the EC50 fell in the range of 100 to 3000 nM.

`COc1ccc(Nc2cccc(-n3c(C)nc4ccc(F)cc43)n2)cc1` [Cpd 586, 6-(6-fluoro-2-methyl-1H-benzimidazol-1-yl)-N-(4-methoxyphenyl)pyridin-2-amine]: the EC50 lay in the range of 1 to 10 nM.

As to `Cc1ccc(Nc2cccc(-n3c(C)nc4ccc(F)cc43)n2)cc1` [Cpd 587, 6-(6-fluoro-2-methyl-1H-benzimidazol-1-yl)-N-(4-methylphenyl)pyridin-2-amine], the EC50 was 1 to 10 nM.

For `Cc1nc2ccccc2n1-c1cccc(Nc2ccc(Cl)cc2)n1` [Cpd 606, N-(4-chlorophenyl)-6-(2-methyl-1H-benzimidazol-1-yl)pyridin-2-amine], the concentration for a half-maximal effect (EC50) was in the range of 100 to 3000 nM.

On to `Cc1nc2ccc(F)cc2n1-c1cccc(Nc2ccc(C(F)(F)F)cc2)n1` [Cpd 607, 6-(6-fluoro-2-methyl-1H-benzimidazol-1-yl)-N-[4-(trifluoromethyl)phenyl]pyridin-2-amine], for which the EC50 lay within 10 to 100 nM.

For `Cc1nc2ccc(F)cc2n1-c1cccc(Nc2ccc(Cl)cc2)n1` [Cpd 608, N-(4-chlorophenyl)-6-(6-fluoro-2-methyl-1H-benzimidazol-1-yl)pyridin-2-amine], the EC50 was in the range of 10 to 100 nM.

Take `Cc1nc2ccc(F)cc2n1-c1cccc(Nc2ccc(C#N)cc2)n1` [Cpd 609, 4-{[6-(6-fluoro-2-methyl-1H-benzimidazol-1-yl)pyridin-2-yl]amino}benzonitrile]: the EC50 was in the range of 100 to 3000 nM.

In the case of `COC(=O)c1ccc(Nc2cccc(-n3c(C)nc4ccc(F)cc43)n2)cc1` [Cpd 610, methyl 4-{[6-(6-fluoro-2-methyl-1H-benzimidazol-1-yl)pyridin-2-yl]amino}benzoate], the EC50 is 10 to 100 nM.

As for `Cc1ccc(Nc2cc(C#N)cc(-n3c(C)nc4ccccc43)n2)cc1` [Cpd 634, 2-(2-methyl-1H-benzimidazol-1-yl)-6-[(4-methylphenyl)amino]pyridine-4-carbonitrile], the EC50 lay in the range of 10 to 100 nM.

Regarding `COc1ccc2nc(C(F)(F)F)c(-c3cncc(Nc4ccccc4)n3)n2c1` [Cpd 678, 6-[6-methoxy-2-(trifluoromethyl)imidazo[1,2-a]pyridin-3-yl]-N-phenylpyrazin-2-amine], the EC50 is 10 to 100 nM.

In the case of `COc1ccc2nc(C(F)(F)F)c(-c3cncc(Nc4ccc(Cl)cc4)n3)n2c1` [Cpd 679, N-(4-chlorophenyl)-6-[6-methoxy-2-(trifluoromethyl)imidazo[1,2-a]pyridin-3-yl]pyrazin-2-amine], the EC50 fell in the range of 10 to 100 nM.

In the case of `COc1ccc2nc(C(F)(F)F)c(-c3cncc(Nc4ccc(Br)cc4)n3)n2c1` [Cpd 680, N-(4-bromophenyl)-6-[6-methoxy-2-(trifluoromethyl)imidazo[1,2-a]pyridin-3-yl]pyrazin-2-amine], the EC50 was 10 to 100 nM.

Consider `COc1ccc2nc(C(F)(F)F)c(-c3cncc(Nc4ccc(F)cc4)n3)n2c1` [Cpd 681, N-(4-fluorophenyl)-6-[6-methoxy-2-(trifluoromethyl)imidazo[1,2-a]pyridin-3-yl]pyrazin-2-amine], for which the EC50 lay in the range of 100 to 3000 nM.

For `COc1ccc2nc(C(F)(F)F)c(-c3cncc(Nc4ccc(C)cc4)n3)n2c1` [Cpd 682, 6-[6-methoxy-2-(trifluoromethyl)imidazo[1,2-a]pyridin-3-yl]-N-(4-methylphenyl)pyrazin-2-amine], the EC50 was 100 to 3000 nM.

On to `COc1ccc(Nc2cncc(-n3cnc4ccccc43)n2)cc1` [compound 1, 6-(1H-benzimidazol-1-yl)-N-(4-methoxyphenyl)pyrazin-2-amine], for which the EC50 lay within 10 to 100 nM.

Turning to `Ic1ccc(Nc2cncc(-n3cnc4ccccc43)n2)cc1` [compound 2, 6-(1H-benzimidazol-1-yl)-N-(4-iodophenyl)pyrazin-2-amine], the EC50 was in the range of 10 to 100 nM.

Regarding `COc1ccc(Nc2cncc(-n3c(C)nc4ccccc43)n2)cc1F` [compound 12, N-(3-fluoro-4-methoxyphenyl)-6-(2-methyl-1H-benzimidazol-1-yl)pyrazin-2-amine], the EC50 was < 1 nM.

For the molecule `Cc1nc2ccccc2n1-c1cncc(Nc2ccc(C(F)(F)F)cc2)n1` [compound 13, 6-(2-methyl-1H-benzimidazol-1-yl)-N-[4-(trifluoromethyl)phenyl]pyrazin-2-amine], the EC50 was in the range of 10 to 100 nM.

With `FC(F)(F)c1ccc(Nc2cncc(-n3c(C(F)(F)F)nc4ccccc43)n2)cc1` [compound 14, 6-[2-(trifluoromethyl)-1H-benzimidazol-1-yl]-N-[4-(trifluoromethyl)phenyl]pyrazin-2-amine], the EC50 lay in the range of 100 to 3000 nM.

With `FC(F)(F)c1ccc(Nc2cncc(-c3cccc4cc(C(F)(F)F)nn34)n2)cc1` [compound 15, N-[4-(trifluoromethyl)phenyl]-6-[2-(trifluoromethyl)pyrazolo[1,5-a]pyridin-7-yl]pyrazin-2-amine], the EC50 was 10 to 100 nM.

As for `Cc1nc2ccccc2n1-c1cncc(Nc2ccc(OC(F)(F)F)cc2)n1` [compound 19, 6-(2-methyl-1H-benzimidazol-1-yl)-N-[4-(trifluoromethoxy)phenyl]pyrazin-2-amine], the EC50 lay in the range of 100 to 3000 nM.

For `Cc1nc2ccccc2n1-c1cncc(Nc2ccc(Cl)cc2)n1` [compound 20, N-(4-chlorophenyl)-6-(2-methyl-1H-benzimidazol-1-yl)pyrazin-2-amine], the EC50 was in the range of 10 to 100 nM.

On to `Cc1nc2ccccc2n1-c1cncc(Nc2ccc(OC(F)F)cc2)n1` [compound 21, N-[4-(difluoromethoxy)phenyl]-6-(2-methyl-1H-benzimidazol-1-yl)pyrazin-2-amine], for which the EC50 lay in the range of 1 to 10 nM.

With `COc1ccc(Nc2cncc(-n3c(C)nc4ccccc43)n2)cc1Cl` [compound 28, N-(3-chloro-4-methoxyphenyl)-6-(2-methyl-1H-benzimidazol-1-yl)pyrazin-2-amine], the EC50 fell in the range of 1 to 10 nM.

With `COc1ccc(Nc2nc(-c3c(C(F)(F)F)nc4ccccn34)ccc2C#N)cc1` [compound 41, 2-[(4-methoxyphenyl)amino]-6-[2-(trifluoromethyl)imidazo[1,2-a]pyridin-3-yl]pyridine-3-carbonitrile], the EC50 fell in the range of 100 to 3000 nM.

For `COc1ccc(Nc2cncc(-n3c(C(F)(F)F)nc4ccccc43)n2)cc1` [compound 43, N-(4-methoxyphenyl)-6-[2-(trifluoromethyl)-1H-benzimidazol-1-yl]pyrazin-2-amine], the EC50 was 1 to 10 nM.

In the case of `FC(F)Oc1ccc(Nc2cncc(-n3c(C(F)(F)F)nc4ccccc43)n2)cc1` [compound 44, N-[4-(difluoromethoxy)phenyl]-6-[2-(trifluoromethyl)-1H-benzimidazol-1-yl]pyrazin-2-amine], the EC50 fell in the range of 10 to 100 nM.

On to `CCc1nc2ccccc2n1-c1cncc(Nc2ccc(C(F)(F)F)cc2)n1` [compound 51, 6-(2-ethyl-1H-benzimidazol-1-yl)-N-[4-(trifluoromethyl)phenyl]pyrazin-2-amine], for which the EC50 fell in the range of 1 to 10 nM.

`CC(C)c1nc2ccccc2n1-c1cncc(Nc2ccc(C(F)(F)F)cc2)n1` [compound 52, 6-[2-(propan-2-yl)-1H-benzimidazol-1-yl]-N-[4-(trifluoromethyl)phenyl]pyrazin-2-amine]: the EC50 lay in the range of 10 to 100 nM.

As to `CCCc1nc2ccccc2n1-c1cncc(Nc2ccc(C(F)(F)F)cc2)n1` [compound 53, 6-(2-propyl-1H-benzimidazol-1-yl)-N-[4-(trifluoromethyl)phenyl]pyrazin-2-amine], the EC50 was in the range of 10 to 100 nM.

Take `CSc1nc2ccccc2n1-c1cncc(Nc2ccc(C(F)(F)F)cc2)n1` [compound 54, 6-[2-(methylsulfanyl)-1H-benzimidazol-1-yl]-N-[4-(trifluoromethyl)phenyl]pyrazin-2-amine]: the half-maximal effective concentration (EC50) lay in the range of 10 to 100 nM.

In the case of `CNc1nc2ccccc2n1-c1cncc(Nc2ccc(C(F)(F)F)cc2)n1` [compound 61, N-methyl-1-(6-{[4-(trifluoromethyl)phenyl]amino}pyrazin-2-yl)-1H-benzimidazol-2-amine], the EC50 was 1 to 10 nM.

Still in this assay, the particulars now being: read-out: ELISA EC50 value for Bmi-1 protein, Table 1, Bmi-1 sandwich ELISA.
Take `Cc1nc2ccccc2n1-c1cc(N)cc(Nc2ccc(C(F)(F)F)cc2)n1` [Cpd 492, 6-(2-methyl-1H-benzimidazol-1-yl)-N^2-[4-(trifluoromethyl)phenyl]pyridine-2,4-diamine]: the EC50 fell in the range of 10 to 100 nM.

As for `COc1ccc(Nc2nc(-n3c(C)nc4ccccc43)ccc2N)cc1` [Cpd 518, N^2-(4-methoxyphenyl)-6-(2-methyl-1H-benzimidazol-1-yl)pyridine-2,3-diamine], the EC50 was in the range of 10 to 100 nM.

The values above are taken from patent US10584115B2, “Substituted pyridine and pyrazine BMI-1 inhibitors” (PTC Therapeutics, Inc., priority 2013, dated 2020).
